The values below come from US20230272077A1, “PD-1 SIGNAL INHIBITOR COMBINATION THERAPY” (KYOTO UNIVERSITY, priority 2015, published 2023).

One series concerns MC38. Description: Mouse therapy model, MC38-bearing mice (tumor volume, survival). The class given is in vivo. To be noted: MC38-bearing mice; for enhancement of antitumor effect of PD-L1 antibody (tumor volume) / survival rate: reagent combined with PD-L1 antibody vs PD-L1 antibody alone. The method, then:
MC38 (5×10^5) and MethA (5×10^5) cells were intradermally injected on the right flank. MC38 was inoculated into C57BL/6 mice and MethA was inoculated into BALB/c mice. For monotherapy, mice were intraperitoneally injected with 150 μg of PD-L1 mouse antibody (1-111A) (prepared by the laboratory of the present inventors) 5 days after the tumor inoculation. Therapy with PD-L1 antibody alone was repeated three times every 5 days. For combination therapy, administration of PD-L1 antibody and chemical agents started 7 days after tumor injection. Chemical agents were injected at a regular interval of 2 days and PD-L1 antibody at a regular interval of 5 days (shown in FIG. 3b). Tumors were measured on every alternate day, and tumor volumes were calculated using the formula for typical ellipsoid, π×(length×breadth×height/6).
The following chemical reagents were used at the indicated concentrations for combination therapy. AMPK activator: A769662, 6 mg/kg (Abcam); mTOR activator: MHY1485, 3 μg/kg (Sigma-Aldrich); uncoupler: carbonylcyanide-p-trifluoromethoxyphenylhydrazone (FCCP), 1.2 mg/kg (Abcam); uncoupler: 2,4-Dinitrophenol (DNP), 1.7 mg/kg (Aldrich); SIRT1 activator: resveratrol, 0.5 mg/kg (Abcam); ROS scavenger: Mn (III) tetrakis (4-benzoic acid) porphyrin (MnTBAP), 1.25 mg/kg (Calbiochem); ROS generator: tert-butyl hydroperoxide solution (Luperox TBH70X), 200 μL/kg (Sigma-Aldrich); ATP synthase inhibitor: oligomycin, 250 μg/kg (Sigma-Aldrich); paraquat 2 mg/kg (Nakalai Tesque); oltipraz 1.9 mg/kg (Sigma); bezafibrate 1 mg/kg (ChemCruz).
All reagents were freshly prepared just before use. Each reagent was dissolved in the solvent indicated in the instructions. Note that the AMPK activator, mTOR activator, uncouplers and SIRT1 activator were prepared from fresh unused vials in each series of experiments. Dissolved reagents were diluted in PBS, and a 200 l aliquot was injected per mouse.
Murine colon adenocarcinoma MC38 cells (5×10^5) were inoculated into C57BL/6 mice. After 7 days, anti-PD-L1 antibody (1-111A, 150 μg) and AMPK inhibitor (Compound C: 200 μg in BBS, 200 μL) were administered intraperitoneally. Anti-PD-L1 antibody was administered 3 times at a regular interval of 6 days; Compound C (C.C) was administered 7 times at a regular interval 2 days.
MC38 cells (5×10^5) were inoculated into C57BL/6 mice. After 7 days, anti-PD-L1 antibody (1-111A, 150 μg) and PGC-1α/transcription factor complex activator (2-(4-{2-[(4-chlorobenzoyl)amino]ethyl}phenoxy)-2-methylpropanoic acid (bezafibrate): 10 ug in PBS, 200 ul) were administered intraperitoneally. Anti-PD-L1 antibody was administered 3 times at a regular interval of 6 days; bezafibrate was administered 7 times at a regular interval 2 days.

A further series relates to RENCA. Description: RENCA-bearing BALB/c mice (tumor volume). The series is classed as in vivo, mouse. Particulars: RENCA in BALB/c mice, combined with anti-PD-L1 antibody. The method, then: Murine renal cell carcinoma RENCA cells (2×10^6) were inoculated into BALB/c mice. After 7 days, anti-PD-L1 antibody (1-111A, 150 μg) and AMPK inhibitor (Compound C: 200 μg in BBS, 200 l) were administered intraperitoneally. Anti-PD-L1 antibody was administered 3 times at a regular interval of 6 days; Compound C (C.C) was administered 7 times at a regular interval 2 days. Tumor volumes (mm^3) from day 0 to day 25 of RENCA inoculation are shown.

The test system of series [1] is AMPK and its associated proteins ACC and SIRT1. Description: Western blotting of DLN CD8+ T cells, AMPK pathway. The series is classed as in vivo, mouse. To be noted: CD8+ T cells from mice treated with PD-L1 antibody and reagent. The method, then:
(§1) FIG. 7. […] Phosphorylation of AMPK, ACC, mTOR and S6K and the expression of SIRT1 and 4EBP1 were analyzed by Western blotting. b) MC38-bearing mice were treated with PD-L1 antibody in combination with AMPK activator (A769662) and/or mTOR activator (MHY1485) according to the same schedule as shown in FIG. 3b.
(§2) CD8^+ T cells were isolated using mouse CD8 Microbeads (Miltenyi Biotec). After washing with PBS twice, 2×10^6 cells were solubilized in a lysis buffer containing 30 mM Tris-HCl (pH.7.4), 150 mM NaCl, 10% glycerol, 0.1% SDS, 1% Triton-X-100, 0.05% Na-Doc, 5 mM EDTA (pH.8.0), protease inhibitor mixture (Roche Molecular Biochemicals) and phosphatase inhibitors (Nacalai Tesque). After measurement of protein concentrations by DC protein assay (Bio-Rad), 4 μg of proteins was mounted on 4 to 20% gradient Mini-PROTEAN TGX Gels (Bio-Rad) and electroblotted onto nitrocellulose membranes, which were then incubated in a blocking buffer of TBS containing 1% BSA. Primary antibody incubations were carried out overnight at 4° C. in blocking buffer. After washing, secondary antibody incubations were carried out at room temperature for 40 min in blocking buffer. Blots were developed with enhanced chemiluminescence (Amersham Pharmacia). […]
For orientation: In western blotting, separated proteins are transferred to a membrane and probed.

Series [2] has as its system mTOR and its associated proteins S6K and 4EBP1. In words: Western blotting of DLN CD8+ T cells, mTOR pathway. Particulars: CD8+ T cells from mice treated with PD-L1 antibody and reagent. The class given is in vivo, mouse. How it is done: as §1, §2
For series [3] the following is noted: used in 1930's; cited from earlier work.
A further series relates to T-bet and Eomes. Description: T-bet and Eomes expression by flow cytometry in DLN CD8+ T cells. The class given is in vivo, mouse. To be noted: combined with PD-L1 antibody. The method, then:
(§3) FIG. 15. […] Data represent the means±SEM of five mice. *p<0.05, **p<0.01, one-way ANOVA.
(§4) The following antibodies recognizing the indicated antigens were used: CD44 (1M7), CD45.2 (104), CD45.1 (A20), CD8 (53-6.7), CD62L (MEL-14), T-bet (4B/O) and IFN-7 (XMG1.2), MHC class I (AF6-88.5), CD155 (Tx56) and VISTA (MIH63) from BioLegend; p-AMPK (EPR5683) from Ancam; p-mTOR (MRRBY), Eomes (Danllmag) and PD-L1 (M1H5) from eBioscience. All flow cytometry experiments were performed on a FACS Canto II (BD Biosciences) and analyzed using FlowJo software (FLOWJO, LLC). For assessment of intracellular phosphoproteins, cells were permeabilized with 0.5% Triton-X and fixed with 1.5% PFA before staining. Determination of mitochondrial mass, membrane potential, mitochondrial superoxide and cellular ROS was performed using MitoTracker Green, Mito-Tracker Deep Red, MitoSOX Red, and CellROX Green reagents, respectively (all from Life Technologies). These dyes were added to cells to a final concentration of 0.125 μM, 0.125 μM, 5.0 μM and 0.625 μM, respectively, and incubated at 37° C. in a 5% CO2 humidified incubator for 30 min.
(In general: In flow cytometry, cells or beads pass a laser one at a time.)

For a further series, the system named is IFN-γ. Description: Intracellular IFN-γ staining of CD8+ T cells from digested tumor tissues. The series is classed as in vivo, mouse. To be noted: CD8+ T cells in tumors; combined with PD-L1 antibody. The method, then:
as §3, §4

Structures are written as SMILES. Entries after “also recorded” stand apart in the source; their conditions may differ.

With `c1cc(-c2cnn3cc(-c4ccc(OCCN5CCCCC5)cc4)cnc23)ccn1` [AMPK inhibitor, 6-[4-[2-(1-Piperidinyl)ethoxy]phenyl]-3-(4-pyridinyl)pyrazolo[1,5-a]pyrimidine], the “enhancement of antitumor effect of PD-L1 antibody (tumor volume)” value in the series on MC38 is reported as “enhances the efficacy of anti-PD-L1 antibody therapy”; with MC38 (listed as compound C), “Synergistic effect”. Moreover, the “enhancement of efficacy of anti-PD-L1 antibody therapy (tumor volume)” value with RENCA is recorded as “enhances the efficacy of anti-PD-L1 antibody therapy”; in the series on RENCA (listed as compound C) it was “Synergistic effect”.

Take `O=[N+]([O-])c1ccc(O)c([N+](=O)[O-])c1` [DNP, 2,4-dinitrophenol]: the “antitumor activity of triple combination of PD-L1 antibody, DNP and Luperox” value in the series with MC38 (DNP and Luperox both with PD-L1 antibody) is “stronger antitumor activity; also recorded: Antitumor effect is enhanced”. Moreover, the “antitumor effect when administered alone” value in the series with MC38 (reagent alone, no PD-L1 antibody, tumor volume) is listed as “failed to exhibit any antitumor effect”. In the series with MC38, the “enhancement of antitumor effect of PD-L1 antibody (tumor volume)” value is recorded as “augmented the efficacy of PD-L1 antibody therapy; also recorded: enhance the antitumor effect of PD-L1 antibody” and the survival rate result was “remarkably improved the survival rate”. Moreover, the “activation of AMPK and its associated proteins ACC and SIRT1” value in series [1] is “activated”. Further, the “activation of mTOR and its associated proteins S6K and 4EBP1” value in series [2] is given as “also found to be activated”. The “health problems in use as diet supplement” value in series [3] is reported as “caused severe health problems”.

For the molecule `CC(C)(Oc1ccc(CCNC(=O)c2ccc(Cl)cc2)cc1)C(=O)O` [bezafibrate, 2-(4-{2-[(4-chlorobenzoyl)amino]ethyl}phenoxy)-2-methylpropanoic acid], in the series on MC38, the “enhancement of antitumor effect of PD-L1 antibody (tumor volume)” value is listed as “enhanced the tumor growth inhibitory effect of PD-L1 antibody; also recorded: synergize with PD-L1 antibody; also recorded: Synergistic effect” and the survival rate entry is recorded as “improved the survival rate”. Moreover, the “enhancement of antitumor effect of PD-L1 antibody (tumor volume)” value with MC38 (listed as PGC-1α/transcription factor complex activator) is listed as “enhances the efficacy of anti-PD-L1 antibody therapy”. Moreover, in the series with T-bet and Eomes, the Eomes expression entry is given as “reduced Eomes” and the T-bet expression entry was “increased T-bet; also recorded: activated T-bet; also recorded: up-regulated”. The IFN-γ production result in the series on IFN-γ is “increased; also recorded: up-regulated”.
